Measured values taken from ChEMBL document CHEMBL2401728, “An unexpected Dimroth rearrangement leading to annelated thieno[3,2-d][1,2,3]triazolo[1,5-a]pyrimidines with potent antitumor activity” (Eur J Med Chem, 2013).

Columns and labels:
Assay type in all cases: functional
PC-3 = assay: Cytotoxicity against human PC3 cells assessed as cellular growth at 10 uM after 48 hrs by SRB assay relative to control
CCRF-CEM = assay: Cytotoxicity against human CCRF-CEM cells assessed as cellular growth at 10 uM after 48 hrs by SRB assay relative to control
RXF 393 = assay: Cytotoxicity against human RXF393 cells assessed as cellular growth at 10 uM after 48 hrs by SRB assay relative to control
OVCAR-5 = assay: Cytotoxicity against human OVCAR5 cells assessed as cellular growth at 10 uM after 48 hrs by SRB assay relative to control
MDA-MB-435 = assay: Cytotoxicity against human MDA-MB-435 cells assessed as cellular growth at 10 uM after 48 hrs by SRB assay relative to control
HOP-92 = assay: Cytotoxicity against human HOP92 cells assessed as cellular growth at 10 uM after 48 hrs by SRB assay relative to control
TK-10 = assay: Cytotoxicity against human TK10 cells assessed as cellular growth at 10 uM after 48 hrs by SRB assay relative to control
SNB-19 = assay: Cytotoxicity against human SNB19 cells assessed as cellular growth at 10 uM after 48 hrs by SRB assay relative to control
U-251 = assay: Cytotoxicity against human U251 cells assessed as cellular growth at 10 uM after 48 hrs by SRB assay relative to control
DU-145 = assay: Cytotoxicity against human DU145 cells assessed as cellular growth at 10 uM after 48 hrs by SRB assay relative to control
ACHN = assay: Cytotoxicity against human ACHN cells assessed as cellular growth at 10 uM after 48 hrs by SRB assay relative to control
UACC-62 = assay: Cytotoxicity against human UACC62 cells assessed as cellular growth at 10 uM after 48 hrs by SRB assay relative to control
UO-31 = assay: Cytotoxicity against human UO31 cells assessed as cellular growth at 10 uM after 48 hrs by SRB assay relative to control
SF-295 = assay: Cytotoxicity against human SF295 cells assessed as cellular growth at 10 uM after 48 hrs by SRB assay relative to control
NCI-H226 = assay: Cytotoxicity against human NCI-H226 cells assessed as cellular growth at 10 uM after 48 hrs by SRB assay relative to control
MDA-MB-231 = assay: Cytotoxicity against human MDA-MB-231 cells assessed as cellular growth at 10 uM after 48 hrs by SRB assay relative to control
LOX IMVI = assay: Cytotoxicity against human LOXIMVI cells assessed as cellular growth at 10 uM after 48 hrs by SRB assay relative to control
SF-268 = assay: Cytotoxicity against human SF268 cells assessed as cellular growth at 10 uM after 48 hrs by SRB assay relative to control
Malme-3M = assay: Cytotoxicity against human MALME-3M cells assessed as cellular growth at 10 uM after 48 hrs by SRB assay relative to control
RPMI-8226 = assay: Cytotoxicity against human RPMI8226 cells assessed as cellular growth at 10 uM after 48 hrs by SRB assay relative to control
CAKI-1 = assay: Cytotoxicity against human Caki1 cells assessed as cellular growth at 10 uM after 48 hrs by SRB assay relative to control
K562 = assay: Cytotoxicity against human K562 cells assessed as cellular growth at 10 uM after 48 hrs by SRB assay relative to control
UACC-257 = assay: Cytotoxicity against human UACC257 cells assessed as cellular growth at 10 uM after 48 hrs by SRB assay relative to control
HT-29 = assay: Cytotoxicity against human HT-29 cells assessed as cellular growth at 10 uM after 48 hrs by SRB assay relative to control
A549 = assay: Cytotoxicity against human A549 cells assessed as cellular growth at 10 uM after 48 hrs by SRB assay relative to control
SK-MEL-2 = assay: Cytotoxicity against human SK-MEL-2 cells assessed as cellular growth at 10 uM after 48 hrs by SRB assay relative to control
NCI-H23 = assay: Cytotoxicity against human NCI-H23 cells assessed as cellular growth at 10 uM after 48 hrs by SRB assay relative to control
SK-MEL-5 = assay: Cytotoxicity against human SK-MEL-5 cells assessed as cellular growth at 10 uM after 48 hrs by SRB assay relative to control
HCC 2998 = assay: Cytotoxicity against human HCC2998 cells assessed as cellular growth at 10 uM after 48 hrs by SRB assay relative to control
OVCAR-4 = assay: Cytotoxicity against human OVCAR4 cells assessed as cellular growth at 10 uM after 48 hrs by SRB assay relative to control
MOLT-4 = assay: Cytotoxicity against human MOLT4 cells assessed as cellular growth at 10 uM after 48 hrs by SRB assay relative to control
SR = assay: Cytotoxicity against human SR cells assessed as cellular growth at 10 uM after 48 hrs by SRB assay relative to control
[1] = Cytotoxicity against human NCI-ADR-RES cells assessed as cellular growth at 10 uM after 48 hrs by SRB assay relative to control
SN12C = assay: Cytotoxicity against human SN12C cells assessed as cellular growth at 10 uM after 48 hrs by SRB assay relative to control
NCI-H522 = assay: Cytotoxicity against human NCI-H522 cells assessed as cellular growth at 10 uM after 48 hrs by SRB assay relative to control
HCT-15 = assay: Cytotoxicity against human HCT15 cells assessed as cellular growth at 10 uM after 48 hrs by SRB assay relative to control
MCF7 = assay: Cytotoxicity against human MCF7 cells assessed as cellular growth at 10 uM after 48 hrs by SRB assay relative to control
HL-60(TB) = assay: Cytotoxicity against human HL-60(TB) cells assessed as cellular growth at 10 uM after 48 hrs by SRB assay relative to control
KM12 = assay: Cytotoxicity against human KM12 cells assessed as cellular growth at 10 uM after 48 hrs by SRB assay relative to control
T47D = assay: Cytotoxicity against human T47D cells assessed as cellular growth at 10 uM after 48 hrs by SRB assay relative to control
SNB-75 = assay: Cytotoxicity against human SNB75 cells assessed as cellular growth at 10 uM after 48 hrs by SRB assay relative to control
NCI-H322M = assay: Cytotoxicity against human NCI-H322M cells assessed as cellular growth at 10 uM after 48 hrs by SRB assay relative to control
OVCAR-3 = assay: Cytotoxicity against human OVCAR3 cells assessed as cellular growth at 10 uM after 48 hrs by SRB assay relative to control

Compound: O=C(CCCn1c2c(sc3ccccc32)c(=O)n2nnc(-c3ccccc3)c12)NCCc1c[nH]cn1
- Activity (PC-3): -84.51%
- Activity (CCRF-CEM): -58%
- Activity (RXF 393): -70%
- Activity (OVCAR-5): -91%
- Activity (MDA-MB-435): -95.09%
- Activity (HOP-92): -75.7%
- Activity (TK-10): -91%
- Activity (SNB-19): 27.29%
- Activity (U-251): -100%
- Activity (DU-145): -100%
- Activity (ACHN): -84%
- Activity (UACC-62): -76%
- Activity (UO-31): -97%
- Activity (SF-295): -83%
- Activity (NCI-H226): -14%
- Activity (MDA-MB-231): -64%
- Activity (LOX IMVI): -96%
- Activity (SF-268): -77%
- Activity (Malme-3M): -76.11%
- Activity (RPMI-8226): -4.25%
- Activity (CAKI-1): -83.98%
- Activity (K562): -70%
- Activity (UACC-257): -69%
- Activity (HT-29): -100%
- Activity (A549): -75.35%
- Activity (SK-MEL-2): -90.32%
- Activity (NCI-H23): -54%
- Activity (SK-MEL-5): -67.14%
- Activity (HCC 2998): 25.66%
- Activity (OVCAR-4): -92.51%
- Activity (MOLT-4): 79.44%
- Activity (SR): -64%
- Activity [1]: 8%
- Activity (SN12C): -80%
- Activity (NCI-H522): -95.79%
- Activity (HCT-15): -75%
- Activity (MCF7): -100%
- Activity (HL-60(TB)): -29%
- Activity (KM12): -90%
- Activity (T47D): -25.44%
- Activity (SNB-75): -89%
- Activity (NCI-H322M): -34.11%
- Activity (OVCAR-3): -96%

Compound: CN1CCN(CCCn2c3c(sc4ncccc43)c(=O)n3nnc(-c4ccccc4)c23)CC1
- Activity (PC-3): -3.82%
- Activity (CCRF-CEM): -45%
- Activity (RXF 393): -93%
- Activity (OVCAR-5): -15%
- Activity (MDA-MB-435): -81%
- Activity (HOP-92): 42%
- Activity (TK-10): -88%
- Activity (SNB-19): -63%
- Activity (U-251): -84%
- Activity (DU-145): -74%
- Activity (ACHN): -77%
- Activity (UACC-62): 85%
- Activity (UO-31): -90.79%
- Activity (SF-295): -79%
- Activity (NCI-H226): 71%
- Activity (MDA-MB-231): -83.53%
- Activity (LOX IMVI): -96.04%
- Activity (SF-268): -77%
- Activity (Malme-3M): -82%
- Activity (RPMI-8226): -48%
- Activity (CAKI-1): -79%
- Activity (K562): -41%
- Activity (UACC-257): -87%
- Activity (HT-29): -46.19%
- Activity (A549): -74.7%
- Activity (SK-MEL-2): 99.31%
- Activity (NCI-H23): -39%
- Activity (SK-MEL-5): -98%
- Activity (HCC 2998): -87%
- Activity (OVCAR-4): -65%
- Activity (MOLT-4): -50%
- Activity (SR): -50%
- Activity [1]: -29%
- Activity (SN12C): -55%
- Activity (NCI-H522): -76%
- Activity (HCT-15): -63%
- Activity (MCF7): -91%
- Activity (HL-60(TB)): -56%
- Activity (KM12): -79%
- Activity (T47D): 103%
- Activity (SNB-75): 48%
- Activity (NCI-H322M): -76%
- Activity (OVCAR-3): -83.15%
